Results as given in paper PMC4649711, “In1-ghrelin splicing variant is overexpressed in pituitary adenomas and increases their aggressive features” (Scientific Reports, 2015).
“Also recorded” adds a separate entry of the source. Residues, ends and D or L forms follow the SMILES beside them. *: point of attachment. Octanoyl = CCCCCCCC(=O)*

How the values were obtained:
NFPAs = assay: cell viability of NFPAs after In1-ghrelin silencing; format: cell-based, human; conditions: siRNA 100 nM vs scramble, 24 and 48 h, alamar-blue, n = 2
Description: (§1) To perform overexpression experiments, ghrelin sequence was purchased, cloned in pCMV-Sport6-vector (Harvard Cancer Center, Boston, MA, USA) and was subcloned into the expression vector pCDNA3.1+ (Life Technologies, Grand Island, NY, USA). In1-ghrelin sequence was PCR-amplified (In1-Hind-Up: 5′-[…]-3′ and In1-Bam-Low: 5′-[…]-3′) and cloned into pCDNA3.1+. Empty pCDNA3.1+ (mock) was used in all the experiments as negative control. For silencing experiments, a battery of custom-designed siRNAs specifically targeted against the unique In1-ghrelin mRNA sequence was chemically synthesized by Life Technologies and their efficiency, specificity and appropriate concentration tested in human cell lines expressing In1-ghrelin (MDA-MB-231 breast cancer cell line and LnCAP prostate cancer cell line) (data not shown). […]
(§2) As previously reported, cell viability was estimated using alamar-blue reagent (10,000 cells/well-plate; Biosource International, Camarillo, CA, USA)[30][50][52]. […] Reduction of alamar-blue reagent was quantified exciting at 560 nm and reading at 590 nm using the FlexStation III system (Molecular Devices, Sunnyvale, CA, USA). […]

GH-omas = assay: cell viability of GH-omas after In1-ghrelin silencing; format: cell-based, human; conditions: siRNA 100 nM vs scramble, 24 and 48 h, alamar-blue, n = 2
Description: as §1, §2

In1-ghrelin mRNA = assay: silencing of In1-ghrelin mRNA expression; format: cell-based, human; conditions: qPCR; for silencing of In1-ghrelin expression: human cell lines MDA-MB-231 and LnCAP (data not shown) or representative pituitary tumor validation (Figure 6G)
Description: To perform overexpression experiments, ghrelin sequence was purchased, cloned in pCMV-Sport6-vector (Harvard Cancer Center, Boston, MA, USA) and was subcloned into the expression vector pCDNA3.1+ (Life Technologies, Grand Island, NY, USA). In1-ghrelin sequence was PCR-amplified (In1-Hind-Up: 5′-[…]-3′ and In1-Bam-Low: 5′-[…]-3′) and cloned into pCDNA3.1+. Empty pCDNA3.1+ (mock) was used in all the experiments as negative control. For silencing experiments, a battery of custom-designed siRNAs specifically targeted against the unique In1-ghrelin mRNA sequence was chemically synthesized by Life Technologies and their efficiency, specificity and appropriate concentration tested in human cell lines expressing In1-ghrelin (MDA-MB-231 breast cancer cell line and LnCAP prostate cancer cell line) (data not shown). […] As a negative control, a commercial, validated negative control (scramble) was used in all the experiments, which according to the manufacturer's instructions, has no significant sequence similarity to murine or human gene sequences (Silencer Select Negative Control No. 1 siRNA, Life Technologies, […], NY, USA).
For transfection assays (overexpression or silencing), 200,000–500,000 cells were seeded on 6-well plates in serum containing medium during 24–36 h. Then, medium was replaced with antibiotic-antimycotic free medium. For overexpression experiments, 100 ng/50,000 cell of ghrelin or In1-ghrelin plasmid was diluted in 50 μL of Opti-MEM and, 0.5 μL of Lipofectamine 2000 (Life Technologies) were separately diluted in another 50 μL of Opti-MEM. Both solutions were incubated for 5 minutes at room temperature and then, were mixed and incubated for 30 minutes at room temperature. After this incubation period, the solution (total of 100 μL) was added to the cells/per well. For silencing experiments, 7.5 μL of Lipofectamine RNAiMAX (Life Technologies) was diluted in 100 μL of Opti-MEM and, 100 nM of In1-ghrelin siRNA was separately diluted in another 100 μL of Opti-MEM. […]

recombinant human GHSR1b = biological target: T1, recombinant human GHSR1b (Homo sapiens, UniProt Q92847); assay: calcium signaling activation in GHSR1b-transfected CHO-K1 cells; format: cell-based; conditions: Calcium 4 kit, FLIPR Tetra, 37°C dye loading 1 h, dose-response, GraphPad Prism, read-out: Half-maximal Calcium signaling activation (EC50)
T1 construct: expressed in transfected cells; host or cells: CHO-K1 (ATCC CCL-61), stably transfected
T1 sequence (Q92847 1-289 isoform Q92847-2): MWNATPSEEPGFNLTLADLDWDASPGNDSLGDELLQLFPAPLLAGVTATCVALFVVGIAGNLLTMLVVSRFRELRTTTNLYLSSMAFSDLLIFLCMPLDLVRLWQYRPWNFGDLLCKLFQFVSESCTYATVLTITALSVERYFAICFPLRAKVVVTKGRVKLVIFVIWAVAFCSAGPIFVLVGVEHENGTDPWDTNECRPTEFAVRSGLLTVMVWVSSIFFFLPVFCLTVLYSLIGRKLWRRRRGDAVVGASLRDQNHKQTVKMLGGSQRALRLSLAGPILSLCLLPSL
Method: Changes in [Ca^2+]i in CHO-K1 cell line expressing recombinant GHSR1a or GHSR1b receptor were measured using Calcium 4 Explorer Kit (Molecular Devices, Sunnyvale, CA, USA). Briefly, cells were incubated at 37°C, 5% CO2 overnight in growth media. After 24 hours, growth media was replaced with Calcium 4 indicating dye in HBSS buffer containing 20 mM HEPES and 0.1% BSA and incubated for 1 hour at 37°C. Fluorescent signals were then monitored using the FLIPR Tetra (Molecular Devices, Sunnyvale, CA, USA) during which cells were stimulated with compounds. Dose-response curves were analyzed using GraphPad Prism v5.04 (La Jolla, CA, USA).

AtT-20 cell line [1] = assay: cell viability of AtT-20 cell line; format: cell-based, mouse; conditions: alamar-blue, 3–5 independent experiments, IGF-1 and Paclitaxel as controls
Method: (§3) The mouse corticotroph pituitary derived cell line AtT-20/D16v-F2 (ATCC® CRL-1795) was cultured and maintained in Dulbecco's Modified Eagle's Medium (DMEM) complemented with 10% FBS, 100 U/ml penicillin/streptomycin, 0.024 M of 2-(4(2-hydroxyethyl)-1-piperazine)-ethane sulfonic acid (HEPES), and maintained at 37°C and 5% CO2, under sterile conditions. CHO-K1 cell line(ATCC® CCL-61) expressing recombinant human GHSR1a (GenBank accession number U60179) or GHSR1b (GenBank accession number U60181) were cultured and maintained in Ham's F12 media (Corning #10-080-CV) supplemented with 10% FBS, 2 mM L-Glutamine and 0.4 mg/mL Geneticin.
As previously reported, cell viability was estimated using alamar-blue reagent (10,000 cells/well-plate; Biosource International, Camarillo, CA, USA)[30][50][52]. Briefly, cells were serum-starved for 12–16 h before the measurements and treated with serum-free medium containing 10% alamar-blue for 3 h. Reduction of alamar-blue reagent was quantified exciting at 560 nm and reading at 590 nm using the FlexStation III system (Molecular Devices, Sunnyvale, CA, USA). Subsequently, media was replaced by serum-containing alamar-blue free medium and incubated for additional 24–72 h, measuring the alamar-blue reduction every 24 h. […]

AtT-20 cell line [2] = assay: ACTH secretion from AtT-20 cell line; format: cell-based, mouse; conditions: 4 h, 3–5 independent experiments
Method: as §3
To examine the effects of ghrelin system components (4- and/or 24 h-incubation) on pituitary hormone release from primary pituitary adenoma and/or AtT-20 cell line, 100,000–200,000 cell/well were used. As previously reported, hormone concentrations were measured in the culture media derived from human samples according to the pituitary adenoma type using commercial ELISAs [growth hormone, GH; adrenocorticotropin, ACTH; and prolactin, PRL (reference numbers: EIA-3552, EIA-3647 and EIA-1291, respectively; DRG, Mountainside, NJ, USA)] following the manufacturer's instructions. All the information regarding specificity, detectability, and reproducibility for each of the assays can be accessed at the web site of the company.

## 5′-GAGTCCTAAACAGACTGTT-3′ (siRNA; other strand not given here) [In1-ghrelin siRNA]
NFPAs
  cell viability after In1-ghrelin silencing: reduced cell viability
GH-omas
  cell viability after In1-ghrelin silencing: reduced cell viability
In1-ghrelin mRNA
  silencing of In1-ghrelin expression: more robust silencing efficiency of In1-ghrelin, but not native ghrelin
In1-ghrelin mRNA; listed as specific siRNAs
  silencing of In1-ghrelin expression: decrease of In1-ghrelin mRNA expression
In1-ghrelin mRNA; selectivity vs native ghrelin
  ghrelin mRNA expression after In1-ghrelin silencing: no significant decrease of ghrelin mRNA expression

## CCCCCCCC(=O)OC[C@H](NC(=O)[C@H](CO)NC(=O)CN)C(=O)N[C@@H](Cc1ccccc1)C(=O)N[C@@H](CC(C)C)C(=O)N[C@@H](CO)C(=O)N1CCC[C@H]1C(=O)N[C@@H](CCC(=O)O)C(=O)N[C@@H](Cc1c[nH]cn1)C(=O)N[C@@H](CCC(N)=O)C(=O)N[C@@H](CCCNC(=N)N)C(=O)N[C@H](C(=O)N[C@@H](CCC(N)=O)C(=O)N[C@H](C(=O)N[C@@H](CCCNC(=N)N)C(=O)N1CCC[C@H]1C(=O)N1CCC[C@H]1C(=O)N[C@@H](Cc1c[nH]cn1)C(=O)N[C@@H](CCCCN)C(=O)O)C(C)C)C(C)C [In1-19] (H-GSS(Octanoyl)FLSPEHQRVQVRPPHK-OH)
Recombinant human GHSR1b
  EC50: > 3 µM

## CCCCCCCC(=O)OC[C@H](NC(=O)[C@H](CO)NC(=O)CN)C(=O)N[C@@H](Cc1ccccc1)C(=O)N[C@@H](CC(C)C)C(=O)N[C@@H](CO)C(=O)N1CCC[C@H]1C(=O)N[C@@H](CCC(=O)O)C(=O)N[C@@H](Cc1c[nH]cn1)C(=O)N[C@@H](CCC(N)=O)C(=O)N[C@@H](CCCNC(=N)N)C(=O)N[C@H](C(=O)N[C@@H](CCC(N)=O)C(=O)N[C@H](C(=O)N[C@@H](CCCNC(=N)N)C(=O)N1CCC[C@H]1C(=O)N1CCC[C@H]1C(=O)N[C@@H](Cc1c[nH]cn1)C(=O)N[C@@H](CCCCN)C(=O)N[C@@H](C)C(=O)N1CCC[C@H]1C(=O)N[C@@H](Cc1c[nH]cn1)C(=O)N[C@H](C(=O)N[C@H](C(=O)N1CCC[C@H]1C(=O)N[C@@H](C)C(=O)N[C@@H](CC(C)C)C(=O)N1CCC[C@H]1C(=O)N[C@@H](CC(C)C)C(=O)N[C@@H](CO)C(=O)N[C@@H](CC(N)=O)C(=O)N[C@@H](CCC(N)=O)C(=O)N[C@@H](CC(C)C)C(=O)N[C@@H](CS)C(=O)N[C@@H](CC(=O)O)C(=O)N[C@@H](CC(C)C)C(=O)N[C@@H](CCC(=O)O)C(=O)N[C@@H](CCC(N)=O)C(=O)N[C@@H](CCC(N)=O)C(=O)N[C@@H](CCCNC(=N)N)C(=O)O)C(C)C)C(C)C)C(C)C)C(C)C [In1-40] (H-GSS(Octanoyl)FLSPEHQRVQVRPPHKAPHVVPALPLSNQLCDLEQQR-OH)
Recombinant human GHSR1b
  EC50: > 3 µM

## GSSFLSPEHQKAQVSQSVSLSPHIYPDLCVCV [In2-ghrelin, 32-aa mouse In2-ghrelin derived peptide, murine counterpart of In1-ghrelin]
AtT-20 cell line [1]
  cell viability: stimulated cell viability; also recorded: increased cell viability
AtT-20 cell line [2]
  basal ACTH release: significantly increased basal ACTH release
